Laboratory results: the NIST ThermoML archive (doi:10.1021/acs.jced.8b00229)

Settings: Liquid, Vibrating tube method

C=CCCCC [hex-1-ene]
Settings | mass density [kg/m3]
283.57 K, 1000 kPa | 683.2
283.57 K, 3000 kPa | 685.2
283.57 K, 5000 kPa | 687.2
283.57 K, 10000 kPa | 691.9
283.57 K, 15000 kPa | 696.4
283.57 K, 20000 kPa | 700.6
283.57 K, 25000 kPa | 704.7
283.57 K, 30000 kPa | 708.5
283.57 K, 35000 kPa | 712.4
283.57 K, 45000 kPa | 719.4
283.58 K, 500 kPa | 682.3
283.58 K, 40000 kPa | 714.7
283.58 K, 50000 kPa | 722.4
283.58 K, 55000 kPa | 725.5
283.58 K, 60000 kPa | 728.6
283.58 K, 70000 kPa | 734.4
283.58 K, 80000 kPa | 739.9
283.59 K, 100 kPa | 682.2
283.59 K, 90000 kPa | 745.2
283.59 K, 100000 kPa | 750.1
293.5 K, 1000 kPa | 674.1
293.51 K, 100 kPa | 673.1
293.51 K, 500 kPa | 673.5
293.51 K, 3000 kPa | 676.3
293.51 K, 5000 kPa | 678.4
293.51 K, 10000 kPa | 683.5
293.51 K, 20000 kPa | 692.8
293.51 K, 25000 kPa | 697
293.51 K, 30000 kPa | 701.1
293.51 K, 35000 kPa | 704.9
293.51 K, 55000 kPa | 718.9
293.51 K, 60000 kPa | 722.1
293.51 K, 70000 kPa | 728.2
293.51 K, 80000 kPa | 733.8
293.51 K, 90000 kPa | 739.3
293.51 K, 100000 kPa | 744.4
293.52 K, 15000 kPa | 688.3
293.52 K, 40000 kPa | 708.6
293.52 K, 45000 kPa | 712.5
293.52 K, 50000 kPa | 715.6
303.4 K, 500 kPa | 664.1
303.4 K, 1000 kPa | 664.6
303.41 K, 100 kPa | 663.5
303.41 K, 3000 kPa | 667
303.41 K, 5000 kPa | 669.3
303.41 K, 10000 kPa | 674.8
303.41 K, 15000 kPa | 679.9
303.41 K, 20000 kPa | 684.7
303.41 K, 25000 kPa | 689.2
303.42 K, 30000 kPa | 693.5
303.42 K, 35000 kPa | 698.2
303.42 K, 40000 kPa | 701.5
303.42 K, 45000 kPa | 705.8
303.42 K, 50000 kPa | 708.8
303.42 K, 55000 kPa | 712.8
303.42 K, 60000 kPa | 715.5
303.42 K, 70000 kPa | 721.8
303.42 K, 80000 kPa | 727.7
303.42 K, 90000 kPa | 733.2
303.42 K, 100000 kPa | 738.5
313.34 K, 100 kPa | 654.1
313.34 K, 20000 kPa | 676.6
313.35 K, 500 kPa | 654.2
313.35 K, 1000 kPa | 655.3
313.35 K, 3000 kPa | 657.9
313.35 K, 5000 kPa | 660.3
313.35 K, 10000 kPa | 666.1
313.35 K, 15000 kPa | 671.6
313.35 K, 25000 kPa | 681.4
313.35 K, 30000 kPa | 685.9
313.35 K, 35000 kPa | 690.2
313.35 K, 40000 kPa | 694.3
313.35 K, 45000 kPa | 698.3
313.35 K, 50000 kPa | 701.9
313.35 K, 55000 kPa | 705.7
313.35 K, 60000 kPa | 709
313.35 K, 80000 kPa | 721.9
313.35 K, 90000 kPa | 727.6
313.35 K, 100000 kPa | 733.2
313.36 K, 70000 kPa | 715.9
323.18 K, 100 kPa | 644.5
323.18 K, 60000 kPa | 702.5
323.19 K, 500 kPa | 644.9
323.19 K, 1000 kPa | 645.8
323.19 K, 3000 kPa | 648.6
323.19 K, 5000 kPa | 651.3
323.19 K, 10000 kPa | 657.6
323.19 K, 50000 kPa | 695.2
